{"source": "paper PMC8877061", "about": "“Antifungal and Antibiofilm Activity of Cyclic Temporin L Peptide Analogues against Albicans and Non-Albicans Candida Species” (Pharmaceutics, 2022)", "key": {"[1]": {"system": "C. albicans preformed biofilm", "experiment": "Eradication of preformed biofilm (XTT)", "type": "cell-based", "settings": "peptide 6.25 μM, 24-h old biofilm, 24 h treatment", "protocol": "(§1) C. albicans ATCC 90028, C. auris DSM 21092, C. glabrata DSM 11226, C. tropicalis DSM11951 and C. parapsilosis DSM 4874 grown on YPD Agar (1% w/v yeast extract, 2% w/v peptone, 2% w/v glucose, 1.5% Agar) were cultured in Tryptone soya broth supplemented with 0.1% glucose for 16–18 h at 37 °C, washed twice using sterile phosphate-buffered saline (PBS) and standardized to […] as required for the experiments. RPMI1640 medium (Thermo Fisher Scientific, Waltham, MA, USA) buffered to a pH of 7.0 with 0.165 M MOPS was used for growing the biofilms of all Candida species.\n(§2) Biofilm inhibition and eradication assays were performed as previously described in [37]. […] After the incubation period, non-adherent cells were detached by washing each sample three times in sterile PBS. […] The total biomass was quantified by a crystal violet assay for the inhibition. The vital biomass was quantified by XTT for test eradication by using the tetrazolium 2,3-bis (2-methoxy-4-nitro-5 sulfophenyl)-5-[(phenylamine) carbonyl]-2H-hydroxide reduction assay (XTT) (Sigma-Aldrich, St. Luis, MO, USA) according to the manufacturer’s instructions. The absorbance was measured spectrophotometrically at 492 nm. The percentages of inhibition or eradication were calculated as follows: % biofilm reduction = Abs control − Abs sample/Abs control × 100."}, "[2]": {"system": "C. parapsilosis preformed biofilm", "experiment": "Eradication of preformed biofilm (XTT)", "type": "cell-based", "settings": "peptide 6.25 μM, 24-h old biofilm, 24 h treatment", "protocol": "as §1, §2"}, "[3]": {"system": "C. albicans ATCC 90028 biofilms", "experiment": "Eradication of preformed biofilm, bright-field microscopy", "type": "cell-based", "settings": "peptide 12.5 μM", "protocol": "Biofilm inhibition and eradication assays were performed as previously described in [37]. […] After the incubation period, non-adherent cells were detached by washing each sample three times in sterile PBS. Then, the samples were fixed, and the biofilms were stained with a 0.1% solution of crystal violet. To test the effect against the established biofilm, fresh growth medium containing peptides at the same concentrations was added in the preformed 24-h old biofilms and incubated for another 24 h. The total biomass was quantified by a crystal violet assay for the inhibition. The vital biomass was quantified by XTT for test eradication by using the tetrazolium 2,3-bis (2-methoxy-4-nitro-5 sulfophenyl)-5-[(phenylamine) carbonyl]-2H-hydroxide reduction assay (XTT) (Sigma-Aldrich, St. Luis, MO, USA) according to the manufacturer’s instructions. The absorbance was measured spectrophotometrically at 492 nm. The percentages of inhibition or eradication were calculated as follows: % biofilm reduction = Abs control − Abs sample/Abs control × 100.\nOptical microscopy images were acquired by using a Leica AF6000LX-DM6M-Z microscope (Leica Microsystems, Mannheim, Germany) controlled by LAS-X (Leica Application Suite; rel. 3.0.13) software and equipped with a Leica Camera DFC7000T. Images were acquired by focusing on the Petri dish surface with a 50× objective in a bright field. […]"}, "[4]": {"experiment": "Peptide aggregation imaged by AFM on mica", "type": "physicochemical", "excerpt": "XE-100 Atomic Force Microscopy (AFM) (by Park Systems, Suwon, Korea) was used for the imaging of the most promising peptide (3) with and without liposome interaction. Surface imaging was obtained in non-contact mode using SSS-NCHR 10 M (by Park Systems) Si/Al-coated cantilever with a sharp tip (typical tip radius: 2 nm, <5 nm max), a resonance frequency between 200 and 400 kHz and a nominal force constant of 42 N/m. […] The AFM images were processed and analyzed by the home software (XEI by Park Systems). The images were flattened to remove the background slope and adjusted in terms of contrast and brightness. For the sample preparation for AFM, the AFM imaging was performed on a substrate of a Muscovite mica surface (of about 1 cm^2 in area) that owned a root mean square (rms) surface roughness of less than 0.5 nm on a 1000 × 1000 nm^2 area. The 3-µL aliquots of the sample solutions were casted on mica immediately after cleavage with adhesive tape to establish their cleanliness and charge activity. In fact, after the cleavage, the K^+ ions bonding the mica layers were highly mobile, resulting in a positive overcharging of the mica surface, which enabled the deposition of molecules that held a […]. After 2 min, every sample was gently washed with deionized water to remove the sample excesses and then dried at room temperature under a ventilated fume hood."}, "[5]": {"experiment": "Peptide aggregation by Thioflavin T fluorescence in LUVs", "type": "physicochemical", "settings": "LUVs PE/PC/PI/ergosterol 0.1 mM, Tris-HCl/NaCl pH 7.4, 25 °C, titrated 5-50 μM peptide", "protocol": "The aggregation in the liposomes mimicking fungal membranes (5:4:1:2, w/w/w/w) was evaluated using Thioflavin T (ThT) as a dye probe. The lipid film was prepared by dissolving lipids in chloroform to have a final lipid concentration of 0.1 mM. Then, the solvent was removed under a nitrogen gas stream, and the film was freeze-dried overnight. Lipid films were hydrated with 100 mM NaCl, 10 mM Tris-HCl and a […] ThT buffer at a pH of 7.4 and then treated as described above to obtain LUVs. The LUVs were titrated with a peptide concentration of 5, 10, 15, 20, 30 and 50 μM, and ThT fluorescence was recorded before and after the addition of the peptide using the Varian Cary Eclipse fluorescence spectrometer at 25 °C. The samples were excited at 450 nm (slit width: 10 nm), and the fluorescence emission was recorded at 482 nm (slit width: 5 nm). Aggregation was quantified according to the equation %A = (Ff − F0)/(Fmax − F0) × 100, where Ff indicates the value of fluorescence after the peptide addition, F0 is the initial fluorescence before the addition of the peptide and Fmax is the fluorescence maximum obtained immediately after the peptide addition."}, "G. mellonella larvae": {"system": "G. mellonella larvae", "settings": "in vivo", "protocol": "Twenty larvae with an average weight of 180–200 mg were used in each group in all assays with 2 control groups; one group was inoculated with PBS, while the other group received no injection as a control to evaluate general viability. A volume of 10 µL of each peptide at different concentrations (12.5, 25.0, and 50.0 µM) was inoculated in each group. All larvae were incubated at 37 °C and monitored daily for survival for 4 days in 3 independent experiments."}, "[6]": {"settings": "absence of liposomes, peptide 50 μM"}}, "note": "Positions of bridges follow the written chain, without caps; N, C: chain ends. Non-standard residues stand in square brackets, D forms with d. Residues, ends and D or L forms follow the SMILES beside them. Triazole bridges read from a SMILES are 1,4-linked. Lys(N3) = [N-]=[N+]=NCCCC[C@H](N)C(=O)O; Pra = C#CC[C@H](N)C(=O)O", "data": [{"compound": "CC[C@H](C)[C@H](NC(=O)[C@H](CCCNC(=N)N)NC(=O)[C@@H]1CCC(=O)NCCCC[C@H](NC(=O)[C@H](Cc2ccccc2)NC(=O)[C@H](Cc2c[nH]c3ccccc23)NC(=O)[C@@H]2CCCN2C(=O)[C@@H](NC(=O)[C@@H](N)Cc2ccccc2)C(C)C)C(=O)N[C@@H](CCCCN)C(=O)N[C@@H](Cc2ccccc2)C(=O)N[C@H](CC(C)C)C(=O)N1)C(=O)N[C@@H](CC(C)C)C(N)=O", "note": "[compound 3] (H-FVPWFKKF[dL]ERIL-NH2; lactam 6-10; N-terminus assumed)", "values": [{"measurement": "eradication of preformed biofilm, C. albicans", "setting": "[1]", "value": 50, "unit": "%"}, {"measurement": "eradication of preformed biofilm, C. parapsilosis", "setting": "[2]", "value": 50, "unit": "%"}, {"measurement": "eradication effect on preformed C. albicans biofilms by optical microscopy", "setting": "[3]", "value": "effective in the eradication of biofilm"}, {"measurement": "height of aggregates (clusters) on mica by AFM", "setting": "[4]; [6]", "value": "≤ 20", "unit": "nm"}, {"measurement": "width of aggregates (clusters) on mica by AFM", "setting": "[4]; [6]", "value": "up to 300 nm"}, {"measurement": "thickness of peptide layer on mica by AFM, presence of liposomes", "setting": "[4]; after interaction with liposomes mimicking fungal membranes", "value": 4, "unit": "nm"}]}, {"compound": "CC(C)C[C@H](NC(=O)[C@@H]1CCCCn2cc(nn2)C[C@H](NC(=O)[C@H](CCCCN)NC(=O)[C@H](CO)NC(=O)[C@H](Cc2ccccc2)NC(=O)[C@H](Cc2c[nH]c3ccccc23)NC(=O)[C@@H]2CCCN2C(=O)[C@@H](NC(=O)[C@@H](N)Cc2ccccc2)C(C)C)C(=O)N[C@H](CC(C)C)C(=O)NCC(=O)N[C@@H](CCCNC(=N)N)C(=O)N1)C(N)=O", "note": "[compound 7] (H-FVPWFSK[Pra][dL]GR[Lys(N3)]L-NH2; triazole 8-12; N-terminus assumed)", "values": [{"measurement": "concentration of complete aggregation (ThT fluorescence)", "setting": "[5]", "value": 30, "unit": "µM"}]}, {"compound": "CC[C@H](C)[C@H](NC(=O)[C@H](CCCNC(=N)N)NC(=O)[C@@H]1CCCCNC(=O)CC[C@H](NC(=O)[C@H](Cc2ccccc2)NC(=O)[C@H](Cc2c[nH]c3ccccc23)NC(=O)[C@@H]2CCCN2C(=O)[C@@H](NC(=O)[C@@H](N)Cc2ccccc2)C(C)C)C(=O)N[C@@H](CCCCN)C(=O)N[C@@H](Cc2ccccc2)C(=O)N[C@H](CC(C)C)C(=O)N1)C(=O)N[C@@H](CC(C)C)C(N)=O", "note": "[compound 15] (H-FVPWFEKF[dL]KRIL-NH2; lactam 6-10; N-terminus assumed)", "values": [{"measurement": "toxicity in G. mellonella larvae at 50 μM", "setting": "G. mellonella larvae", "value": "greater toxicity"}]}]}
